Laboratory results taken from patent US20150344457A1, “METHODS OF INHIBITING PRMT5” (EPIZYME, INC., priority 2012, published 2015).

Test system: Z-138 cells
Test: Z-138 Methylation Assay (In Cell Western for symmetric di-methyl arginine and DNA content)
Type: cell-based
Conditions: Homo sapiens, Table A-2, 96 hours, symmetric di-methyl arginine, read-out: ICW EC50
How it was run: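 Symmetric di-methyl arginine signal (800 nm) ratioed to DNA content (700 nm) by In Cell Western after four days of compound treatment of Z-138 suspension cells seeded at 50,000 cells/mL. Percent inhibition set between DMSO and 3 μM reference wells; IC50 curves from triplicates.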

Row | Compound | EC50
1 | O=C(COc1ccc2c(cnn2C2CCNC2)c1)NCC(O)CN1CCc2ccccc2C1 (centres unmarked) [Compound A95] | 101 to 1000 nM
2 | O=C(COc1cccc(CN2CCOCC2)c1)NCC(O)CN1CCc2ccccc2C1 (centres unmarked) [Compound A75] | < 100 nM
3 | CN1C(=O)COc2cccc(OCC(=O)NCC(O)CN3CCc4ccccc4C3)c21 (centres unmarked) [Compound A80] | 101 to 1000 nM
4 | C[C@H](Oc1cccc2cccnc12)C(=O)NC[C@H](O)CN1CCc2ccccc2C1 [Compound A76] | 101 to 1000 nM
5 | O=C(COc1c(CN2CCOCC2)ccc2cccnc12)NC[C@H](O)CN1CCc2ccccc2C1 [Compound A94] | 101 to 1000 nM
6 | CC(=O)N1CCN(c2ccccc2OCC(=O)NCC(O)CN2CCc3ccccc3C2)CC1 (centres unmarked) [Compound A90] | 101 to 1000 nM
7 | O=C(COc1cccc(NC2CCOCC2)c1)NCC(O)CN1CCc2ccccc2C1 (centres unmarked) [Compound A93] | < 100 nM
8 | O=C(COc1cccc2nccnc12)NCC(O)CN1CCc2ccccc2C1 (centres unmarked) [Compound A92] | < 100 nM
9 | Cn1ncc2c(OCC(=O)NCC(O)CN3CCc4ccccc4C3)cccc21 (centres unmarked) [Compound A82] | < 100 nM
10 | CN1CCOc2cccc(OCC(=O)NCC(O)CN3CCc4ccccc4C3)c21 (centres unmarked) [Compound A81] | < 100 nM
11 | O=C(COc1cccc(C(=O)N2CCOCC2)c1)NCC(O)CN1CCc2ccccc2C1 (centres unmarked) [Compound A83] | 101 to 1000 nM
12 | O=C(COc1ccccc1N1CCNCC1)NCC(O)CN1CCc2ccccc2C1 (centres unmarked) [Compound A79] | 101 to 1000 nM
13 | O=C(COc1cccc2c1CCNC2)NCC(O)CN1CCc2ccccc2C1 (centres unmarked) [Compound A91] | 101 to 1000 nM
14 | CN(C)CCOc1ccccc1OCC(=O)NC[C@H](O)CN1CCc2ccccc2C1 [Compound A88] | 101 to 1000 nM
15 | O=C(COc1ccccc1N1CCOCC1)NC[C@H](O)CN1CCc2ccccc2C1 [Compound A77] | < 100 nM
16 | CN1CCN(c2ccccc2OCC(=O)NC[C@H](O)CN2CCc3ccccc3C2)CC1 [Compound A84] | 101 to 1000 nM
17 | O=C(COc1ccccc1OCCN1CCOCC1)NC[C@H](O)CN1CCc2ccccc2C1 [Compound A86] | 101 to 1000 nM

Same assay, conditions: Homo sapiens, Table D-2, read-out: ICW EC50

Row | Compound | EC50
18 | COC(=O)c1cncc(-c2cccc(OCC(O)CN3CCc4ccccc4C3)c2)c1 (centres unmarked) [Compound D180] | > 20000 nM
19 | Cc1ccc(F)c(-c2cccc(OCC(O)CN3CCc4ccccc4C3)c2)c1 (centres unmarked) [Compound D138] | 1000 to 10000 nM
20 | O=C(Nc1cccc(OCC(O)CN2CCc3ccccc3C2)c1)c1cnccn1 (centres unmarked) [Compound D145] | 1000 to 10000 nM
21 | Cn1ncc2ccc(-c3cc(COCC(O)CN4CCc5ccccc5C4)on3)cc21 (centres unmarked) [Compound D136] | 1000 to 10000 nM
22 | OC(COc1cccc(-c2cc(OC(F)(F)F)ccc2Cl)c1)CN1CCc2ccccc2C1 (centres unmarked) [Compound D200] | 10000 to 40000 nM
23 | CN1CCN(c2ccc(-c3cccc(OCC(O)CN4CCc5ccccc5C4)c3)cn2)CC1 (centres unmarked) [Compound D149] | 1000 to 10000 nM
24 | Cn1ccc2ccc(-c3cccc(OCC(O)CN4CCc5ccccc5C4)c3)cc21 (centres unmarked) [Compound D147] | 1000 to 10000 nM
25 | OC(COc1cccc(-c2ccc3cnoc3c2)c1)CN1CCc2ccccc2C1 (centres unmarked) [Compound D166] | 10000 to 40000 nM
26 | OC(COc1cccc(-c2csc3ccccc23)c1)CN1CCc2ccccc2C1 (centres unmarked) [Compound D170] | 1000 to 10000 nM
27 | Cn1cnc2ccc(-c3cccc(NCC(O)CN4CCc5ccccc5C4)n3)cc21 (centres unmarked) [Compound D117] | 1000 to 10000 nM
28 | COc1ccc(Cl)cc1-c1cccc(OCC(O)CN2CCc3ccccc3C2)c1 (centres unmarked) [Compound D134] | 1000 to 10000 nM
29 | COC(=O)c1cccc(-c2cccc(OCC(O)CN3CCc4ccccc4C3)c2)c1 (centres unmarked) [Compound D135] | > 20000 nM
30 | Cn1nccc1C(=O)Nc1cccc(OCC(O)CN2CCc3ccccc3C2)c1 (centres unmarked) [Compound D160] | 1000 to 10000 nM
31 | NC(=O)c1ccc(-c2cccc(OCC(O)CN3CCc4ccccc4C3)c2)cc1 (centres unmarked) [Compound D152] | 1000 to 10000 nM
32 | OC(COc1cccc(-c2ccc(C(F)(F)F)cc2C(F)(F)F)c1)CN1CCc2ccccc2C1 (centres unmarked) [Compound D124] | 10000 to 40000 nM
33 | O=C(Nc1cccc(OCC(O)CN2CCc3ccccc3C2)c1)c1cncnc1 (centres unmarked) [Compound D161] | 1000 to 10000 nM

Row | Compound | EC50
34 | CC(C)Oc1ccc(F)c(-c2cccc(OCC(O)CN3CCc4ccccc4C3)c2)c1 (centres unmarked) [Compound D201] | 1000 to 10000 nM
35 | O=C(c1cccc(-c2cccc(OCC(O)CN3CCc4ccccc4C3)c2)c1)N1CCOCC1 (centres unmarked) [Compound D126] | 1000 to 10000 nM
36 | N#Cc1cccc(-c2cccc(OCC(O)CN3CCc4ccccc4C3)c2)c1 (centres unmarked) [Compound D172] | 1000 to 10000 nM
37 | COc1ccc(-c2cccc(OCC(O)CN3CCc4ccccc4C3)c2)cc1Cl (centres unmarked) [Compound D168] | 10000 to 40000 nM
38 | OC(COc1cccc(-c2ccc(C(F)(F)F)cc2Cl)c1)CN1CCc2ccccc2C1 (centres unmarked) [Compound D127] | 10000 to 40000 nM
39 | Cn1ccc(C(=O)Nc2cccc(OCC(O)CN3CCc4ccccc4C3)c2)n1 (centres unmarked) [Compound D162] | 1000 to 10000 nM
40 | OC(COc1cccc(-c2ccccc2Oc2ccccc2)c1)CN1CCc2ccccc2C1 (centres unmarked) [Compound D167] | 1000 to 10000 nM
41 | CS(=O)(=O)c1ccccc1-c1cccc(OCC(O)CN2CCc3ccccc3C2)c1 (centres unmarked) [Compound D131] | 1000 to 10000 nM
42 | CN(C)c1ccc(-c2cccc(OCC(O)CN3CCc4ccccc4C3)c2)cc1 (centres unmarked) [Compound D151] | 1000 to 10000 nM
43 | Cn1cnc(C(=O)Nc2cccc(OCC(O)CN3CCc4ccccc4C3)c2)c1 (centres unmarked) [Compound D183] | 1000 to 10000 nM
44 | O=C(c1cccc(-c2cccc(OCC(O)CN3CCc4ccccc4C3)c2)c1)N1CCCC1 (centres unmarked) [Compound D185] | 1000 to 10000 nM
45 | Cc1cn(C)c2cc(-c3cccc(OCC(O)CN4CCc5ccccc5C4)c3)ccc12 (centres unmarked) [Compound D187] | 1000 to 10000 nM
46 | OC(COc1cccc(-c2ccc3ncoc3c2)c1)CN1CCc2ccccc2C1 (centres unmarked) [Compound D188] | 1000 to 10000 nM
47 | O=C1NCc2ccc(-c3cccc(OCC(O)CN4CCc5ccccc5C4)c3)cc21 (centres unmarked) [Compound D148] | 1000 to 10000 nM
48 | CC(C)(C)OCc1cccc(-c2cccc(OCC(O)CN3CCc4ccccc4C3)c2)c1 (centres unmarked) [Compound D150] | 1000 to 10000 nM
49 | CS(=O)(=O)c1cccc(-c2cccc(OCC(O)CN3CCc4ccccc4C3)c2)c1 (centres unmarked) [Compound D130] | 1000 to 10000 nM

Now from value to compound:

Row | EC50 | Compound
50 | 1000 to 10000 nM | NC(=O)c1cccc(-c2cccc(OCC(O)CN3CCc4ccccc4C3)c2)c1 (centres unmarked) [Compound D171]
51 | 1000 to 10000 nM | OC(COc1cccc(-c2ccc3ncn(-c4ccccc4)c3c2)c1)CN1CCc2ccccc2C1 (centres unmarked) [Compound D104]
52 | 101 to 1000 nM | OC(COc1cccc(-c2ccc3ncn(C4CCOCC4)c3c2)c1)CN1CCc2ccccc2C1 (centres unmarked) [Compound D103]
53 | 101 to 1000 nM | Cn1cnc2cnc(-c3cccc(OCC(O)CN4CCc5ccccc5C4)c3)nc21 (centres unmarked) [Compound D191]
54 | 1000 to 10000 nM | Cn1ncc2ccc(-c3cccc(OCC(O)CN4CCc5ccccc5C4)c3)cc21 (centres unmarked) [Compound D106]
55 | 101 to 1000 nM | Cn1cnc2ccc(-c3cccc(OCC(O)CN4CCc5ccccc5C4)c3)nc21 (centres unmarked) [Compound D189]
56 | 1000 to 10000 nM | CN(C)c1ncc(-c2cccc(OCC(O)CN3CCc4ccccc4C3)c2)cn1 (centres unmarked) [Compound D125]
57 | 1000 to 10000 nM | O=C1COc2ccc(-c3cccc(OCC(O)CN4CCc5ccccc5C4)c3)cc2N1 (centres unmarked) [Compound D156]
58 | 1000 to 10000 nM | OC(COc1cccc(-c2ccc3[nH]ncc3c2)c1)CN1CCc2ccccc2C1 (centres unmarked) [Compound D107]
59 | 101 to 1000 nM | Cn1ncc2ccc(-c3cc(NCC(O)CN4CCc5ccccc5C4)ncn3)cc21 (centres unmarked) [Compound D205]
60 | 1000 to 10000 nM | OC(COc1cccc(-c2cccnc2F)c1)CN1CCc2ccccc2C1 (centres unmarked) [Compound D139]
61 | 1000 to 10000 nM | CS(=O)(=O)Nc1ccc(-c2cccc(OCC(O)CN3CCc4ccccc4C3)c2)cc1 (centres unmarked) [Compound D129]
62 | 1000 to 10000 nM | CC(=O)c1ccc(-c2cccc(OCC(O)CN3CCc4ccccc4C3)c2)cc1 (centres unmarked) [Compound D137]
63 | 1000 to 10000 nM | CN(CC(O)CN1CCc2ccccc2C1)c1cccc(CNC2CCOCC2)c1 (centres unmarked) [Compound D116]
64 | 1000 to 10000 nM | CNC(=O)c1cccc(-c2cccc(OCC(O)CN3CCc4ccccc4C3)c2)c1 (centres unmarked) [Compound D186]
65 | 1000 to 10000 nM | Cn1ncc2cc(-c3cccc(OCC(O)CN4CCc5ccccc5C4)c3)ccc21 (centres unmarked) [Compound D108]

Row | EC50 | Compound
66 | 1000 to 10000 nM | OC(COc1cccc(-c2ccc3ncn(Cc4ccccc4)c3c2)c1)CN1CCc2ccccc2C1 (centres unmarked) [Compound D105]
67 | 1000 to 10000 nM | CNC(=O)c1cncc(-c2cccc(OCC(O)CN3CCc4ccccc4C3)c2)c1 (centres unmarked) [Compound D182]
68 | 1000 to 10000 nM | OC(COc1cccc(-c2ccccc2C(F)(F)F)c1)CN1CCc2ccccc2C1 (centres unmarked) [Compound D132]
69 | 101 to 1000 nM | O=c1[nH]c2ccc(-c3cccc(OCC(O)CN4CCc5ccccc5C4)c3)cc2[nH]1 (centres unmarked) [Compound D109]
70 | 101 to 1000 nM | CC(=O)Nc1cccc(-c2cccc(OCC(O)CN3CCc4ccccc4C3)c2)c1 (centres unmarked) [Compound D169]
71 | 101 to 1000 nM | Cn1cnc2ccc(-c3cncc(NCC(O)CN4CCc5ccccc5C4)n3)cc21 (centres unmarked) [Compound D121]
72 | 101 to 1000 nM | Cn1ccc2ccc(-c3cccc(OCC(O)CN4CCc5ccccc5C4)c3)nc21 (centres unmarked) [Compound D176]
73 | 101 to 1000 nM | Cn1cnc2ccc(-c3ccnc(NCC(O)CN4CCc5ccccc5C4)n3)cc21 (centres unmarked) [Compound D119]
74 | 101 to 1000 nM | Cn1ccc2cnc(-c3cccc(OCC(O)CN4CCc5ccccc5C4)c3)nc21 (centres unmarked) [Compound D141]
75 | 101 to 1000 nM | Cc1ccncc1-c1cccc(OCC(O)CN2CCc3ccccc3C2)c1 (centres unmarked) [Compound D113]
76 | 101 to 1000 nM | Cn1cnc2ccc(-c3ccnc(NCC(O)CN4CCc5ccccc5C4)c3)cc21 (centres unmarked) [Compound D118]
77 | 101 to 1000 nM | Cn1cnc2ccc(-c3cccc(NCC(O)CN4CCc5ccccc5C4)c3)cc21 (centres unmarked) [Compound D102]
78 | < 100 nM | Cn1cnc2ccc(-c3cncc(NCC(O)CN4CCc5ccccc5C4)c3)cc21 (centres unmarked) [Compound D199]
79 | 101 to 1000 nM | Cn1cnc2ccc(-c3cc(NCC(O)CN4CCc5ccccc5C4)ncn3)cc21 (centres unmarked) [Compound D207]
80 | 101 to 1000 nM | Cn1cnc2ccc(-c3cccc(OC[C@H](O)CN4CCc5ccccc5C4)c3)cc21 [Compound D174]
